Data taken from patent US20240269139A1, “COMPOUNDS FOR TARGETED PROTEIN DEGRADATION OF KINASES” (DANA-FARBER CANCER INSTITUTE, INC., priority 2020, published 2024).

Assays:
[1] = molecular target: T1, extended human kinome (kinase-like proteins) (Homo sapiens, UniProt Q9UHH9); test: Whole cell quantitative proteomics: extended kinome hits; conditions: Accession Q9UHH9
T1 sequence (Q9UHH9 1-426): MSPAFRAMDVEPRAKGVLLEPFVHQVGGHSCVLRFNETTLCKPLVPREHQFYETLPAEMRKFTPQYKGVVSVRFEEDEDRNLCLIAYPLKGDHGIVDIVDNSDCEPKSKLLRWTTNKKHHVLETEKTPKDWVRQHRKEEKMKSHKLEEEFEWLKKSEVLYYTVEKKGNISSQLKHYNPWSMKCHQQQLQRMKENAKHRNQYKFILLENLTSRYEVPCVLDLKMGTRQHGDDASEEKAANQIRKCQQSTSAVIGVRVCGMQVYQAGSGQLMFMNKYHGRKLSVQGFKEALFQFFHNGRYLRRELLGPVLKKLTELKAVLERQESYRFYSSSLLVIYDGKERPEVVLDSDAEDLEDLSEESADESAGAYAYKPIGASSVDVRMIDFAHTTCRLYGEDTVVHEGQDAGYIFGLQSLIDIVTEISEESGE

[2] = molecular target: T2, GCK (Homo sapiens, UniProt Q12851); test: KiNativ live cell profiling, GCK; format: cell-based, H. sapiens; conditions: MOLT-4 CRBN−/− cells, 1 μM, 5 h
T2 construct: host or cells: CRBN-/- MOLT-4
T2 sequence (Q12851 1-820): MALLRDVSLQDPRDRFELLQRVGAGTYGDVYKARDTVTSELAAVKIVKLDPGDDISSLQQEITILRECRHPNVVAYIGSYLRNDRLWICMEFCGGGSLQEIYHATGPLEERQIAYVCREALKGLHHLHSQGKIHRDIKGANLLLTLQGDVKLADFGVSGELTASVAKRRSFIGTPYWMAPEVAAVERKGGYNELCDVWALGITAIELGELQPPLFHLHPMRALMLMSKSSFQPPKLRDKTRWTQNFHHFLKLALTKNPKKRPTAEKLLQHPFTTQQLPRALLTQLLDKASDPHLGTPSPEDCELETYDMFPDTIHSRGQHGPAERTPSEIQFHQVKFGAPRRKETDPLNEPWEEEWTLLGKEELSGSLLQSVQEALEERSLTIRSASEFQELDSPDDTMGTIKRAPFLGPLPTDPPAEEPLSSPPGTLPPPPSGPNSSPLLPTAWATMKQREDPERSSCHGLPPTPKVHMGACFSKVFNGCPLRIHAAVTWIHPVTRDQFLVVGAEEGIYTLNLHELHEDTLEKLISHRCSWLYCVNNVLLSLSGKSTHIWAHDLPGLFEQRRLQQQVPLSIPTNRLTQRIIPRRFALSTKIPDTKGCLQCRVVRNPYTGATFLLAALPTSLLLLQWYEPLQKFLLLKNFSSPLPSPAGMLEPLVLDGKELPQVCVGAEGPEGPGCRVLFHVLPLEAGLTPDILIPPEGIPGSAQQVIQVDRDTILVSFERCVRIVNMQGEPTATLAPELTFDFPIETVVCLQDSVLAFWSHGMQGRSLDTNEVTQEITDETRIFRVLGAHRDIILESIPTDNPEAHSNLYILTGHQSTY
Protocol: One of the key features of degraders is their potential for a sub-stoichiometric mode of action (Paiva and Crews, Curr Opin Chem Biol 50:111-119 (2019)). […] While this has been confirmed in a limited number of individual studies, the generalizability of this hypothesis was tested across the kinome. […] The focus of this test was to establish whether cellular target engagement (target occupancy) correlates with degrader efficacy. […] KiNativ™ is an activity based chemoproteomic assay, which measures the ability of a small molecule of interest to block the binding of a covalent ATP-mimetic probe. […] Furthermore, the proportion of degraded kinases with detectable binding varied dramatically from compound to compound, and was unrelated to cellular permeability (FIG. 3F).
CRBN^−/− MOLT-4 cells were plated in fresh media (RPMI-1640+10% FBS) in 15 cm plates and treated for 5 hours with candidate compounds. To harvest cells, plates were harvested using detachment using CellStripper™ detachment solution (Corning®) and washed 2× with cold phosphate-buffered saline (abbreviated PBS), followed by centrifugation and snap-freezing of cell pellets in liquid nitrogen. The remainder of the KiNativ® profiling experiment was performed by ActivX® Biosciences (La Jolla. CA).

[3] = molecular target: T3, CRBN (Homo sapiens, UniProt Q96SW2); test: Competitive displacement assay for cellular CRBN engagement (BRD4BD2-GFP reporter, dBET6); format: cell-based, H. sapiens; conditions: 5 hours in presence of dBET6
T3 construct: HEK293T cells stably expressing the BRD4BD2-GFP with mCherry reporter; endogenous in cells; host or cells: HEK293T stably expressing BRD4BD2-GFP / mCherry reporter
Protocol: HEK293T cells stably expressing the BRD4BD2-GFP with mCherry reporter were seeded at 30-50% confluency in 384-well plates with 50 μL FluoroBrite™ Dulbecco's Modified Eagle's medium (DMEM) media (Thermo Fisher Scientific. A18967) containing 10% fetal bovine serum (FBS) per well a day before compound treatment. Degrader titrations and 100 nM dBET6 or 250 nM AT1 were dispensed using a D300e Digital Dispenser (HP), normalized to 0.5% DMSO, and incubated with cells for 5 hours. Assay plates were imaged using Acumen® (TTP Labtech), as described above.

Question: How did the “logFC IP6K2” value ([1]; experiment wp016, 1 uM) turn out when `CC(C)S(=O)(=O)c1ccccc1Nc1nc(Nc2ccc(N3CCN(CCOCCNC(=O)CNc4cccc5c4C(=O)N(C4CCC(=O)NC4=O)C5=O)CC3)cc2)ncc1Cl` (stereo not shown) [SK.3.91] was run?
Answer: −0.9368

Question: What about the “logFC IP6K2” value ([1]; experiment wp107) of the same compound?
Answer: −1.472

Question: What about the “logFC IP6K2” value ([1]; experiment wp133, 1 hr) of the same compound?
Answer: −0.4547

Question: What about the “logFC IP6K2” value ([1]; experiment wp133, 2 hr) of the same compound?
Answer: −0.6461

Question: And the “logFC IP6K2” value ([1]; experiment wp133, 4 hr)?
Answer: −0.9692

Question: And the “logFC IP6K2” value ([1]; experiment wp160, 2 hr)?
Answer: −0.4937

Question: What about the “logFC IP6K2” value ([1]; experiment wp160, 4 hr) of the same compound?
Answer: −0.6281

Question: How did the “logFC IP6K2” value ([1]; experiment wp118) turn out when `C[C@@H]1C[C@@H](O)c2ncnc(N3CCN(C(=O)[C@H](CNCCCCCCCCCCc4cccc5c4C(=O)N(C4CCC(=O)NC4=O)C5=O)c4ccc(Cl)cc4)CC3)c21` (stereo partly shown) [INY.03.041.01] was run?
Answer: −0.662

Question: And the “logFC IP6K2” value ([1]; experiment wp135, 4 hr)?
Answer: −0.3251

Question: `Cc1ccc(NC(=O)c2cccc(C(F)(F)F)c2)cc1N1Cc2cnc(Nc3ccc(N4CCN(Cc5cn(CCCCCOc6cccc7c6C(=O)N(C6CCC(=O)NC6=O)C7=O)nn5)CC4)nc3)nc2N(C)C1=O` (stereo not shown) [DB0646, N-(3-(7-((6-(4-((1-(5-((2-(2,6-Dioxopiperidin-3-yl)-1,3-dioxoisoindolin-4-yl)oxy)pentyl)-1H-1,2,3-triazol-4-yl)methyl)piperazin-1-v)pyridin-3-yl)amino)-1-methyl-2-oxo-1,4-dihydropyrimido[4,5-d]pyrimidin-3(2H)-yl)-4-methylphenyl)-3-(trifluoromethyl)benzamide] was tested. Which “GCK inhibition of probe binding (KiNativ)” value (“GCK inhibition” below) [2] did it give?
Answer: 58 % I

Question: What about the “cellular permeability / CRBN engagement” value [3] of the same compound?
Answer: able to permeate the cell membrane and bind to the CRBN E3 ligase

Question: For `CC(C)S(=O)(=O)c1ccccc1Nc1nc(Nc2ccc(N3CCN(CCOCCOCCNC(=O)CNc4cccc5c4C(=O)N(C4CCC(=O)NC4=O)C5=O)CC3)cc2)ncc1Cl` (stereo not shown) [TL12.186], which “logFC IP6K2” value ([1]; experiment wp137) is on record?
Answer: −0.7538

Question: With `CC(C)S(=O)(=O)c1ccccc1Nc1nc(Nc2ccc(N3CCN(CCOCCNC(=O)CNc4cccc5c4C(=O)N(C4CCC(=O)NC4=O)C5=O)CC3)cc2)ncc1Cl` (stereo not shown) [SK-3-91] as the compound, how does the “GCK inhibition” value [2] read?
Answer: 50 % I

Question: And the “cellular permeability / CRBN engagement” value [3]?
Answer: able to permeate the cell membrane and bind to the CRBN E3 ligase

Question: How did the “GCK inhibition” value [2] turn out when `Cc1ccc(C(=O)Nc2ccc(CN3CCN(CCCOCCOCCOCCNC(=O)COc4cccc5c4C(=O)N(C4CCC(=O)NC4=O)C5=O)CC3)c(C(F)(F)F)c2)cc1C#Cc1cnc2cccnn12` (stereo not shown) [SB1-G-187, N-(4-((4-(1-((2-(2,6-dioxopiperidin-3-yl)-1,3-dioxoisoindolin-4-yl)oxy)-2-oxo-6,9,12-trioxa-3-azapentadecan-15-yl)piperazin-1-yl)methyl)-3 (trifluoromethyl)phenyl)-3-(imidazo[1,2-b]pyridazin-3-ylethynyl)-4-methylbenzamide] was run?
Answer: 94 % I

Question: And the “cellular permeability / CRBN engagement” value [3]?
Answer: able to permeate the cell membrane and bind to the CRBN E3 ligase
